Measurements: patent US20130197027A1, “HETEROCYCLYL-AZABICYCLO[3.2.1]OCTANE ANALOGS AS SELECTIVE M1 AGONISTS AND METHODS OF MAKING AND USING SAME” (priority 2010, published 2013)
Where a chain is given by its changes, count along the chain named. Like-named read-outs stand apart in the source and are kept apart here.

Experiments:
[1] = target: T1, hM1 (Homo sapiens, UniProt P11229); assay: Calcium mobilization assay in CHO-K1 cells stably expressing human M1 (high throughput, FDSS 6000); assay type: cell-based; settings: for Emax: HM1, read-out: Efficacy (% Max ACh)
T1 construct: host or cells: CHO-K1
T1 sequence (P11229 1-460): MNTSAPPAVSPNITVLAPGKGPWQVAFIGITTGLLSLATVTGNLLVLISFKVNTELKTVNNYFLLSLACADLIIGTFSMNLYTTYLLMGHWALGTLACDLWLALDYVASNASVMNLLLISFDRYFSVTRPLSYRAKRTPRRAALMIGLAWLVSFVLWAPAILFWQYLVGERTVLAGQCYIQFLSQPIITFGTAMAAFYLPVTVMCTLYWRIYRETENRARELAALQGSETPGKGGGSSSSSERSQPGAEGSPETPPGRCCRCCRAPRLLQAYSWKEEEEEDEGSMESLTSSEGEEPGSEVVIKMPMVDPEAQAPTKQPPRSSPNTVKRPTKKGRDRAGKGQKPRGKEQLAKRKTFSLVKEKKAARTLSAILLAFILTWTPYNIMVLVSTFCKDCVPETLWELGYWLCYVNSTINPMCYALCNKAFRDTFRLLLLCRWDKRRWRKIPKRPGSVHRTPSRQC
From the text: (§1) Chinese hamster ovary (CHO-K1) cells stably expressing rat (r) M1 were purchased from the American Type Culture Collection and cultured according to their indicated protocol. CHO cells stably expressing human (h)M2, hM3, and hM5 were described previously (Levey et al., 1991); hM1 and hM4 cDNAs were purchased from Missouri S&T cDNA Resource; rM4 cDNA was provided by T. I. Bonner (National Institutes of Health, Bethesda, Md.). hM1, hM4, and rM4 cDNAs were used to stably transfect CHO-K1 cells purchased from the American Type Culture Collection using Lipofectamine2000. To make stable hM2, hM4 and rM4 cell lines for use in calcium mobilization assays, these cells also were stably transfected with a chimeric G-protein (Gqi5) (provided by B. R. Conklin, University of California, San Francisco) using Lipofectamine 2000. rM1, hM3, and hM5 cells were grown in Ham's F-12 medium containing 10% heat-inactivated fetal bovine serum (FBS), 20 mM HEPES, and 50 μg/mL G418 sulfate. hM2-Gqi5 and hM4-Gqi5 cells were grown in the same medium also containing 500 μg/mL Hygromycin B. Stable rM4-Gqi5 cells were grown in DMEM containing 10% heat-inactivated FBS, 20 mM HEPES, 400 μg/mL G418 sulfate, and 500 μg/mL Hygromycin B. The rat M1 Y381A orthosteric mutant receptor cDNA was generated using the Quik-Change site-directed mutagenesis kit (Stratagene) and verified by sequencing. CHO-K1 cells were stably transfected with this cDNA using Lipofectamine2000 and screened for expression based on calcium mobilization in response to the allosteric M1 agonist N-desmethylclozapine.
For high throughput measurement of agonist-evoked increases in intracellular calcium, CHO-K1 cells stably expressing muscarinic receptors were plated in growth medium lacking G418 and hygromycin at 15,000 cells/20 μL/well (hM1, hM2-Gqi5, hM3, hM4-Gqi5, and hM5) in Greiner 384-well black-walled, tissue culture (TC)-treated, clear-bottom plates (VWR). Cells were incubated overnight at 37° C. and 5% CO2. The next day, cells were washed using an ELX 405 (BioTek) with three washes (50 μL) of assay buffer then aspirated to 15 μL. Next, 5 μL of 8 μM Fluo-4/acetoxymethyl ester (Invitrogen, Carlsbad, Calif.) prepared as a 2.3 mM stock in DMSO and mixed in a 1:1 ratio with 10% (w/v) Pluronic F-127 and diluted in assay buffer was added to the wells and the cell plates were incubated for 45 min at 37° C. and 5% CO2. Dye was removed by washing with the ELX 405 (three 50 μL washes of assay buffer) then aspirated to 20 μL. Agonist and compound master plates were formatted in an 11 point CRC format (1:3 dilutions) in 100% DMSO with a starting concentration of 10 mM using the BRAVO liquid handler (Agilent). Test compound CRCs were then transferred to daughter plates ([…]) using the Echo acoustic plate reformatter (Labcyte, Sunnyvale, Calif.) and then diluted into assay buffer (40 μL) to a 2× stock using a Thermo Fisher Combi (Thermo Fisher Scientific, Waltham, Mass.). Calcium flux was measured using the Functional Drug Screening System (FDSS) 6000 (Hamamatsu Corporation, Tokyo, Japan) as an increase in the fluorescent static ratio. 20 μL of Agonist Compounds were applied to cells using the automated system of the FDSS 6000 at 4 s into the 300 s protocol and the data were collected at 1 Hz. Concentration-response curves were generated using a four-parameter logistical equation in XLfit curve fitting software (IDBS, Bridgewater, N.J.) for Excel (Microsoft, Redmond, Wash.) or Prism (GraphPad Software, Inc., San Diego, Calif.).

[2] = target: T2, rM1 (Rattus norvegicus, UniProt P08482); assay: Calcium mobilization assay in CHO-K1 cells stably expressing rat M1 (low throughput, Flexstation II); assay type: cell-based; settings: for Emax: RM1, read-out: Efficacy (% Max ACh)
T2 construct: host or cells: CHO-K1
T2 sequence (P08482 1-460): T1 sequence (P11229 1-460) with A5V, T254S, P309S, R320K, A337G, I413V
From the text: as §1
For low throughput measurement of agonist-evoked increases in intracellular calcium, CHO-K1 cells stably expressing muscarinic receptors were plated in 100 μL of growth medium at 5×10^4 (rM1, hM3, and hM5) or 6×10^4 cells per well (rM1 Y381A, hM2, and rM4) in Costar 96-well black-walled, tissue culture (TC)-treated, clear-bottom plates (Fisher). Cells were incubated overnight at 37° C. and 5% CO2. The next day, medium was removed from the cells, and they were incubated with 50 μL of 2 μM Fluo-4/acetoxymethyl ester (Invitrogen, Carlsbad, Calif.) prepared as a 2.3 mM stock in DMSO and mixed in a 1:1 ratio with 10% (w/v) Pluronic F-127 and diluted in assay buffer [HBSS (Invitrogen) supplemented with 20 mM HEPES and 2.5 mM probenecid, pH 7.4] for 1 h at 37° C. and 5% CO2. Dye was removed and replaced with 50 μL of assay buffer. For calcium fluorescence measurements, CRCs of compounds (50 μl, 2×) were added 19 s after the beginning of data collection via a Flexstation II (Molecular Devices, Sunnyvale, Calif.). Fluorescence imaging continued for a total of 130 s acquisition time using an excitation wavelength of 488 nm, an emission wavelength of 525 nm, and a cutoff wavelength of 515 nm. All of the peaks of the calcium response were normalized to the response to a maximally effective concentration of ACh (ECmax). These normalized peak calcium response values were fit using GraphPad Prism version 4.0 to a four-parameter logistic equation to determine EC50 values.

[3] = agonist-evoked calcium mobilization, CHO-K1 hM1 cells, read-out: hM1 Potency (EC50)
[4] = agonist-evoked calcium mobilization, CHO-K1 rM1 cells, read-out: rM1 Potency (EC50)

| Structure (SMILES) | Emax [1] [%] | EC50 [1, 3] [nM] | Emax [2] [%] | EC50 [2, 4] [nM] | EC50 [1] [nM] | EC50 [2] [nM] |
| --- | --- | --- | --- | --- | --- | --- |
| CCOC(=O)N1C2CCC1CC(N1CCC[C@@H](NC(=O)c3ccc(F)cc3Cl)C1)C2 (stereo partly drawn) [Example 14, ethyl 3-((R)-3-(2-chloro-4-fluorobenzamido)piperidin-1-yl)-8-azabicyclo[3.2.1]octane-8-carboxylate] | 68 | 620 | – | – | – | – |
| CCOC(=O)N1C2CCC1CC(N1CCC[C@@H](NC(=O)c3c(F)cccc3F)C1)C2 (stereo partly drawn) [Example 15, ethyl 3-((R)-3-(2,6-difluorobenzamido)piperidin-1-yl)-8-azabicyclo[3.2.1]octane-8-carboxylate] | 66 | 330 | – | – | – | – |
| CCOC(=O)N1C2CCC1CC(N1CCC[C@@H](NC(=O)c3ccccc3)C1)C2 (stereo partly drawn) [Example 3, ethyl 3-((R)-3-benzamidopiperidin-1-yl)-8-azabicyclo[3.2.1]octane-8-carboxylate] | 79 | 1600 | 93 | 112 | – | – |
| CCOC(=O)N1C2CCC1CC(N1CCC[C@@H](NC(=O)OC(C)(C)C)C1)C2 (stereo partly drawn) [Example 1, ethyl 3-((R)-3-((tert-butoxycarbonyl)amino)piperidin-1-yl)-8-azabicyclo[3.2.1]octane-8-carboxylate] | 29 | 2000 | 74 | 267 | – | – |
| CCOC(=O)N1C2CCC1CC(N1CCC[C@@H](NC(=O)c3ccccc3F)C1)C2 (stereo partly drawn) [Example 13, ethyl 3-((R)-3-(2-fluorobenzamido)piperidin-1-yl)-8-azabicyclo[3.2.1]octane-8-carboxylate] | 38 | 4200 | – | – | – | – |
| CCOC(=O)N1C2CCC1CC(N1CCC[C@@H](NC(=O)c3cccc(OC)c3)C1)C2 (stereo partly drawn) [Example 4, ethyl 3-((R)-3-(3-methoxybenzamido)piperidin-1-yl)-8-azabicyclo[3.2.1]octane-8-carboxylate] | 76 | – | 94 | – | 250 | 52 |
| CCOC(=O)N1C2CCC1CC(N1CC[C@@H](NC(=O)c3ccccc3)C1)C2 (stereo partly drawn) [Example 17, ethyl 3-((R)-3-benzamidopyrrolidin-1-yl)-8-azabicyclo[3.2.1]octane-8-carboxylate] | 54 | 160 | – | – | – | – |
| CCOC(=O)N1C2CCC1CC(N1CC[C@@H](NC(=O)c3ccccc3C)C1)C2 (stereo partly drawn) [Example 16, ethyl 3-((R)-3-(2-methylbenzamido)pyrrolidin-1-yl)-8-azabicyclo[3.2.1]octane-8-carboxylate] | 57 | 940 | – | – | – | – |
| CCOC(=O)N1C2CCC1CC(N1CCC[C@@H](NC(=O)c3ccccc3Cl)C1)C2 (stereo partly drawn) [Example 7, ethyl 3-((R)-3-(2-chlorobenzamido)piperidin-1-yl)-8-azabicyclo[3.2.1]octane-8-carboxylate] | 61 | – | 94 | – | 570 | 39 |
| CCOC(=O)N1C2CCC1CC(N1CCC[C@@H](NC(=O)c3ccc(F)c(F)c3)C1)C2 (stereo partly drawn) [Example 12, ethyl 3-((R)-3-(3,4-difluorobenzamido)piperidin-1-yl)-8-azabicyclo[3.2.1]octane-8-carboxylate] | 68 | 750 | – | – | – | – |
| CCOC(=O)N1C2CCC1CC(N1CCC[C@@H](NC(=O)c3ccccc3C)C1)C2 (stereo partly drawn) [Example 2, ethyl 3-((R)-3-(2-methylbenzamido)piperidin-1-yl)-8-azabicyclo[3.2.1]octane-8-carboxylate] | 88 | – | 94 | – | 53 | 5 |
